Measured values as given in article PMC8903829 (eLife, 2022).
Read-outs that look alike come from different tables or passages of the source.

Columns and labels:
Sprague Dawley rats = experiment: Observation of potential adverse behavior (behavioral signs) in the rat DC-MES studies; type: in vivo; settings: for behavioral signs concentration (BSC) / plasma EC50 ratio (Tolerability / EC50 Rat MES): rat DC-MES
Protocol: Animals were observed by the scientist(s) responsible for dosing for the first 30 min after dosing for and again at the time of assay (2 hr post dose) for signs of abnormal behavior.

[1] = Bioanalytical assessment of plasma and brain concentrations after rat DC-MES assay; type: in vivo; settings: rat, in vivo, Rat DC-MES
[2] = Bioanalytical assessment of plasma and brain concentrations after mouse DC-MES assay; type: in vivo; settings: mouse, in vivo, WT mouse DC-MES acute
How it was run: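 Blood (cardiac puncture, EDTA) and whole brains taken at end of the in vivo assay; brain homogenized in 1:1 acetonitrile/water. Plasma and homogenate extracted by acetonitrile protein precipitation with internal standard, quantified by UHPLC-ESI-MS/MS against a 1/X-weighted linear calibration.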

[3] = test system: wild-type Sprague Dawley rats; experiment: DC-Maximal electroshock seizure assay (DC-MES); type: in vivo, rat; settings: for EC50: Rattus norvegicus
How it was run: (§1)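 Compounds given 2 hr before corneal DC electroshock; phenytoin i.p. in saline. CF1 mice (9–12 weeks): 50 mA, 60 Hz, 0.2 s; SD rats (5–6 weeks): 150 mA, 60 Hz, 0.3 s; 0.5 ms pulse width, eyes anaesthetised with proparacaine. Absence of tonic-clonic hindlimb extension scored protected (0), blinded scoring.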

wild-type mice (CF-1) = experiment: DC-Maximal electroshock seizure assay (DC-MES); type: in vivo, mouse
How it was run: as §1

In the case of COC[C@@H](NC(C)=O)C(=O)NCc1ccccc1 [lacosamide, Lacosamide, reference compound], the “minimal plasma concentration provoking behavioral signs (BSC)” value (Sprague Dawley rats; rat) is reported as 123 µM, the “behavioral signs concentration (BSC) / plasma EC50 ratio (Tolerability / EC50 Rat MES)” value (Sprague Dawley rats) is reported as 5.0 fold and the “behavioral signs concentration (BSC) / plasma EC50 ratio (Tolerability / EC50 Rat MES)” value (Sprague Dawley rats; listed as Lacosamide) is reported as 6.3 fold. For the same compound, the concentration at 2 h ([1]; 2 mg/kg, Study18060, 2 mg/kg, read-out: Mean [Brain]) was 0.641 µM, the concentration at 2 h ([1]; 2 mg/kg, Study18060, 2 mg/kg, read-out: Mean [Palsma]) was 2.97 µM and the concentration at 2 h ([1]; 6 mg/kg, Study18060, 6 mg/kg, read-out: Mean [Brain]) was 1.78 µM. For the same compound, the concentration at 2 h ([1]; 6 mg/kg, Study18060, 6 mg/kg, read-out: Mean [Palsma]) was 8.43 µM, the concentration at 2 h ([1]; 12 mg/kg, Study18060, 12 mg/kg, read-out: Mean [Brain]) was 3.74 µM and the concentration at 2 h ([1]; 12 mg/kg, Study18060, 12 mg/kg, read-out: Mean [Palsma]) was 22.9 µM. The concentration at 2 h ([1]; 100 mg/kg, Study18068, 100 mg/kg, read-out: Mean [Brain]) was 38.2 µM, the concentration at 2 h ([1]; 100 mg/kg, Study18068, 100 mg/kg, read-out: Mean [Palsma]) was 73.5 µM and the concentration at 2 h ([2]; 3 mg/kg, Study18003, 3 mg/kg, read-out: Mean [Brain]) was 3.47 µM. For the same compound, the concentration at 2 h ([2]; 3 mg/kg, Study18003, 3 mg/kg, read-out: Mean [Palsma]) was 3.25 µM, the concentration at 2 h ([2]; 3 mg/kg, Study18053, 3 mg/kg, read-out: Mean [Brain]) was 1.95 µM and the concentration at 2 h ([2]; 3 mg/kg, Study18053, 3 mg/kg, read-out: Mean [Palsma]) was 6.21 µM. The concentration at 2 h ([2]; 3 mg/kg, Study18063, 3 mg/kg, read-out: Mean [Brain]) was 1.26 µM, the concentration at 2 h ([2]; 3 mg/kg, Study18063, 3 mg/kg, read-out: Mean [Palsma]) was 4.46 µM and the concentration at 2 h ([2]; 10 mg/kg, Study18003, 10 mg/kg, read-out: Mean [Brain]) was 11.5 µM. It also gave a concentration at 2 h ([2]; 10 mg/kg, Study18003, 10 mg/kg, read-out: Mean [Palsma]) of 9.52 µM, a concentration at 2 h ([2]; 30 mg/kg, Study18003, 30 mg/kg, read-out: Mean [Brain]) of 34.3 µM and a concentration at 2 h ([2]; 30 mg/kg, Study18003, 30 mg/kg, read-out: Mean [Palsma]) of 26.7 µM. The EC50 ([3]; 2 h, read-out: brain EC50) was 4.3 µM, the EC50 ([3]; read-out: plasma EC50) was 24.4 µM and the “Rat DC-MES Fraction of animals seizing” value ([3]; Study18060, 2 mg/kg) was 1. The “Rat DC-MES Fraction of animals seizing” value ([3]; Study18060, 6 mg/kg) was 0.8571, the “Rat DC-MES Fraction of animals seizing” value ([3]; Study18060, 12 mg/kg) was 0.5714 and the “Rat DC-MES Fraction of animals seizing” value ([3]; Study18068, 100 mg/kg) was 0. For the same compound, the EC50 (wild-type mice (CF-1); Mus musculus, 2 h, read-out: brain EC50) was 7.1 µM, the “WT mouse DC-MES acute Fraction of animals seizing” value (from here on “WT mouse DC-MES acute Fraction”) (wild-type mice (CF-1); Study18003, 3 mg/kg) was 0.625 and the “WT mouse DC-MES acute Fraction” value (wild-type mice (CF-1); Study18003, 10 mg/kg) was 0.375. For the same compound, the “WT mouse DC-MES acute Fraction” value (wild-type mice (CF-1); Study18003, 30 mg/kg) was 0.125, the “WT mouse DC-MES acute Fraction” value (wild-type mice (CF-1); Study18053, 3 mg/kg) was 0.6667 and the “WT mouse DC-MES acute Fraction” value (wild-type mice (CF-1); Study18063, 3 mg/kg) was 0.75.
